Experimental data: patent publication US8841233B2, “Herbicidal compositions comprising 4-amino-3-chloro-5-fluoro-6-(4-chloro-2-fluoro-3-methoxyphenyl) pyridine-2-carboxylic acid or a derivative thereof and 4-hydroxyphenyl-pyruvate dioxygenase (HPPD) inhibitors” (Dow Agrosciences LLC, priority 2012, dated 2014)
“And” between values parts separate entries of the source, which are not always exact repeats. Identical values can stand only once.

Experiments:
Test in all cases: In-water applied weed control, transplanted paddy rice, greenhouse (Example II);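 for Visual Weed Control (%) - 20 DAA ECHCG Obs: visual score 0 no injury to 100 complete kill versus untreated plants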
[1] = system: ECHCG; assay type: in vivo, Echinochloa crusgalli (L.) Beauv.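 For Visual Weed Control (%) - 20 DAA ECHCG Obs: visual score 0 no injury to 100 complete kill versus untreated plants.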
Procedure: (§1) Evaluation of in-Water Applied Herbicidal Mixtures for Weed Control in Transplanted Paddy Rice
(§2) Weed seeds or nutlets of the desired test plant species were planted in puddled soil (mud) prepared by mixing a shredded, non-sterilized mineral soil (50.5 percent silt, 25.5 percent clay, and 24 percent sand, with a pH of about 7.6 and an organic matter content of about 2.9 percent) and water at a 1:1 volumetric ratio. The prepared mud was dispensed in 365 mL aliquots into 16-ounce (oz.) non-perforated plastic pots with a surface area of 86.59 square centimeters (cm^2) leaving a headspace of 3 centimeters (cm) in each pot. Mud was allowed to dry overnight prior to planting or transplanting. Rice seeds were planted in Sun Gro MetroMix® 306 planting mixture, which typically has a pH of 6.0 to 6.8 and an organic matter content of about 30 percent, in plastic plug trays. Seedlings at the second or third leaf stage of growth were transplanted into 840 mL of mud contained in 32-oz. non-perforated plastic pots with a surface area of 86.59 cm^2 4 days prior to herbicide application. The paddy was created by filling the headspace of the pots with 2.5 to 3 cm of water. When required to ensure good germination and healthy plants, a fungicide treatment and/or other chemical or physical treatment was applied. The plants were grown for 4-22 days in a greenhouse with an approximate 14 h photoperiod which was maintained at about 29′C during the day and 26° C. during the night. Nutrients were added as Osmocote® (19:6:12, N:P:K+ minor nutrients) at 2 g per 16-oz. pot and 4 g per 32-oz. pot. Water was added on a regular basis to maintain the paddy flood, and supplemental lighting was provided with overhead metal halide 1000-Watt lamps as necessary. The plants were employed for testing when they reached the first through fourth true leaf stage.
(§3) Treatments consisted of the acid or esters of 4-amino-3-chloro-5-fluoro-6-(4-chloro-2-fluoro-3-methoxy-phenyl)pyridine-2-carboxylic acid (compound A) each formulated as an SC (suspension concentrate) and various herbicidal components alone and in combination. Forms of compound A were applied on an acid equivalent basis.
(§4) Other herbicidal components were applied on an active ingredient basis and included 4-hydroxyphenyl pyruvate dioxygenase (HPPD)-inhibiting herbicides mesotrione formulated as Callisto®, sulcotrione formulated as Mikado®, pyrazolynate formulated as Sunbird® 10% GR, and benzobicyclon formulated as Benzobicyclon 3.5% or technical material.
(§5) Treatment requirements for each compound or herbicidal component were calculated based upon the rates being tested, the concentration of active ingredient or acid equivalent in the formulation, an application volume of 2 mL per component per pot, and an application area of 86.59 cm^2 per pot.
(§6) For formulated compounds, a measured amount was placed in an individual 100 or 200 mL glass vial and was dissolved in a volume of 1.25% (v/v) Agri-Dex® crop oil concentrate to obtain application solutions.
(§7) For technical grade compounds, a weighed amount was placed in an individual 100 to 200 mL glass vial and was dissolved in a volume of acetone to obtain concentrated stock solutions. […] The concentrated stock solutions obtained were diluted with an equivalent volume of an aqueous mixture containing 2.5% (v/v) crop oil concentrate so that the final application solutions contained 1.25% (v/v) crop oil concentrate.
(§8) Applications were made by injecting with a pipetter appropriate amounts of the application solutions, individually and sequentially, into the aqueous layer of the paddy. Control plants were treated in the same manner with the solvent blank. Applications were made so that all treated plant material received the same concentrations of acetone and crop oil concentrate.
(§9) The treated plants and control plants were placed in a greenhouse as described above and water was added as needed to maintain a paddy flood. […]

[2] = system: LEFCH; assay type: in vivo, Leptochloa chinensis (L.) Nees
Procedure: as §1, §2, §3, §4, §5, §6, §7, §8, §9

[3] = system: CYPRO; assay type: in vivo, Cyperus rotundus L.
Procedure: as §1, §2, §3, §4, §5, §6, §7, §8, §9

Structure (SMILES) | Visual Weed Control (%) - 21 DAA ECHCG Obs ([1]; 8.75 gae/ha) [%] | Visual Weed Control (%) - 20 DAA ECHCG Obs ([1]; 17.5 gae/ha) | Visual Weed Control (%) - 21 DAA ECHCG Obs ([1]; 17.5 gae/ha) [%] | Visual Weed Control (%) - 20 DAA ECHCG Obs ([1]; 35 gae/ha) [%] | Visual Weed Control (%) - 21 DAA LEFCH Obs ([2]; 8.75 gae/ha) [%] | Visual Weed Control (%) - 21 DAA LEFCH Obs ([2]; 17.5 gae/ha) [%] | Visual Weed Control (%) - 22 DAA CYPRO Obs ([3]; 10.6 gae/ha) [%] | Visual Weed Control (%) - 22 DAA CYPRO Obs ([3]; 21.2 gae/ha) | Visual Weed Control (%) - 22 DAA CYPRO Obs ([3]; 42.4 gae/ha) [%] | Visual Weed Control (%) - 22 DAA ECHCG Obs ([1]; 8.75 gae/ha) [%] | Visual Weed Control (%) - 22 DAA ECHCG Obs ([1]; 17.5 gae/ha) [%] | Visual Weed Control (%) - 21 DAA LEFCH Obs ([2]; 4.38 gae/ha) [%] | Visual Weed Control (%) - 21 DAA CYPRO Obs ([3]; 17.5 gae/ha) [%]
COc1c(Cl)ccc(-c2nc(C(=O)O)c(Cl)c(N)c2F)c1F [Compound A Acid, 4-amino-3-chloro-6-(4-chloro-2-fluoro-3-methoxyphenyl)-5-fluoropyridine-2-carboxylic acid] | 20 | 35% and 30% | 30 | 55 | 0 | 0 | 0 | 40% and 60% | 90 | – | – | – | –
COc1c(Cl)ccc(-c2nc(C(=O)OCc3ccccc3)c(Cl)c(N)c2F)c1F [Compound A Benzyl Ester, benzyl ester of 4-amino-3-chloro-5-fluoro-6-(4-chloro-2-fluoro-3-methoxy-phenyl)pyridine-2-carboxylic acid] | – | – | – | – | 15 | – | – | – | – | 45 | 90 | 15 | 10
